Results from paper PMC12298351, “Novel 3,19-(N-Phenyl-3-(4-fluorophenyl)-pyrazole) Acetal of Andrographolide Promotes Cell Cycle Arrest and Apoptosis in MDA-MB-231 Breast Cancer Cells” (Pharmaceuticals, 2025).

How the values were obtained:
OVCAR-4 = format: cell-based; conditions: OVCAR-4, Ovarian
OVCAR-5 = conditions: OVCAR-5, Ovarian
UACC-62 = conditions: UACC-62, Melanoma
UO-31 = conditions: UO-31, Renal
M14 = format: cell-based; conditions: M14, Melanoma
[1] = DPPH radical scavenging assay; conditions: 25 µM test compound, 0.1 mM DPPH, acetonitrile, 30 min
Procedure, shortened: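 Compounds at 25 µM in acetonitrile mixed 1:2 with 0.1 mM DPPH in acetonitrile, kept 30 min in the dark at room temperature. Absorbance read at 517 nm; % scavenging = (Ac − As)/Ac × 100, Ac being DPPH blank. Ascorbic acid positive control.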

BT-549 = format: cell-based; conditions: BT-549, Breast
K-562 = conditions: K-562, Leukemia
786-0 = conditions: 786-0, Renal
RXF 393 = conditions: RXF 393, Renal
SK-MEL-2 = conditions: SK-MEL-2, Melanoma
SK-MEL-5 = conditions: SK-MEL-5, Melanoma
MCF7 = conditions: MCF7, Breast
SK-OV-3 = conditions: SK-OV-3, Ovarian
COLO 205 = conditions: COLO 205, Colon
SW-620 = conditions: SW-620, Colon
HT29 = conditions: HT29, Colon
SF-295 = conditions: SF-295, CNS
SNB-19 = format: cell-based; conditions: SNB-19, CNS
DU-145 = conditions: DU-145, Prostate
RPMI-8226 = conditions: RPMI-8226, Leukemia
OVCAR-8 = conditions: OVCAR-8, Ovarian
[2] = read-out: 50% lethal concentration (LC50)

`C=C1CCC2C3(C)COC(c4cn(-c5ccccc5)nc4-c4ccc(C)cc4)OC3CCC2(C)C1CC=C1C(=O)OCC1O` (stereo not shown) [1i] gave a GI50 (OVCAR-4) of 1920 nM, a Total growth inhibition (TGI) (OVCAR-4) of 4.27 µM and a GI50 (OVCAR-5) of 1930 nM. The Total growth inhibition (TGI) (OVCAR-5) was 4.59 µM, the CC50 (OVCAR-5; [2]) was 40.5 µM and the GI50 (UACC-62) was 1640 nM. The Total growth inhibition (TGI) (UACC-62) was 3.15 µM, the CC50 (UACC-62; [2]) was 6.04 µM and the GI50 (NCI/ADR-RES; Ovarian) was 1650 nM. The Total growth inhibition (TGI) (NCI/ADR-RES; Ovarian) was 3.71 µM, the CC50 (NCI/ADR-RES; read-out: 50% lethal concentration (LC50), Ovarian) was 8.34 µM and the GI50 (UO-31) was 1770 nM. For the same compound, the Total growth inhibition (TGI) (UO-31) was 2.67 µM, the CC50 (UO-31; [2]) was 5.36 µM and the GI50 (M14) was 1760 nM. For the same compound, the Total growth inhibition (TGI) (M14) was 3.61 µM, the “% DPPH radical scavenging activity” value [1] was 56.31% and the Total growth inhibition (TGI) (NCI-H23; NCI-H23, Non-Small Cell Lung) was 3.5 µM. It also gave a GI50 (NCI-H23; NCI-H23, Non-Small-Cell Lung) of 1760 nM, a CC50 (NCI-H23; read-out: 50% lethal concentration (LC50), NCI-H23, Non-Small Cell Lung) of 6.96 µM and a GI50 (BT-549) of 1200 nM. The Total growth inhibition (TGI) (BT-549) was 3.02 µM, the GI50 (SN12C; Renal) was 1660 nM and the Total growth inhibition (TGI) (SN12C; Renal) was 3.44 µM. The CC50 (SN12C; read-out: 50% lethal concentration (LC50), Renal) was 7.15 µM, the Total growth inhibition (TGI) (NCI-H226; NCI-H226, Non-Small Cell Lung) was 2.95 µM and the GI50 (NCI-H226; NCI-H226, Non-Small-Cell Lung) was 1470 nM. It also gave a CC50 (NCI-H226; read-out: 50% lethal concentration (LC50), NCI-H226, Non-Small Cell Lung) of 5.92 µM, a GI50 (K-562) of 3.82 µM and a Total growth inhibition (TGI) (K-562) of over 100 µM. For the same compound, the CC50 (K-562; [2]) was over 100 µM, the GI50 (786-0) was 1770 nM and the Total growth inhibition (TGI) (786-0) was 3.69 µM. It also gave a GI50 (RXF 393) of 1490 nM, a Total growth inhibition (TGI) (RXF 393) of 2.97 µM and a CC50 (RXF 393; [2]) of 5.92 µM. It also gave a GI50 (SK-MEL-2) of 1790 nM, a Total growth inhibition (TGI) (SK-MEL-2) of 3.28 µM and a GI50 (SK-MEL-5) of 1590 nM. The Total growth inhibition (TGI) (SK-MEL-5) was 2.96 µM, the CC50 (SK-MEL-5; [2]) was 5.49 µM and the GI50 (CCRF-CEM; Leukemia) was 8.4 µM. The Total growth inhibition (TGI) (CCRF-CEM; Leukemia) was over 100 µM, the CC50 (CCRF-CEM; read-out: 50% lethal concentration (LC50), Leukemia) was over 100 µM and the GI50 (MCF7) was 1570 nM. It also gave a Total growth inhibition (TGI) (MCF7) of 4.6 µM, a CC50 (MCF7; [2]) of 5.4 µM and a GI50 (SK-OV-3) of 3.47 µM. The Total growth inhibition (TGI) (SK-OV-3) was 12.1 µM, the CC50 (SK-OV-3; [2]) was over 100 µM and the GI50 (COLO 205) was 1970 nM. It also gave a Total growth inhibition (TGI) (COLO 205) of 4.5 µM, a GI50 (SW-620) of 5.42 µM and a CC50 (SW-620; [2]) of over 100 µM. For the same compound, the GI50 (HT29) was 1900 nM, the Total growth inhibition (TGI) (HT29) was 4.58 µM and the CC50 (HT29; [2]) was over 100 µM. For the same compound, the GI50 (SF-295) was 1580 nM, the Total growth inhibition (TGI) (SF-295) was 2.96 µM and the CC50 (SF-295; [2]) was 5.54 µM. It also gave a GI50 (SNB-19) of 1360 nM, a GI50 (DU-145) of 2050 nM and a Total growth inhibition (TGI) (DU-145) of 4.19 µM. For the same compound, the CC50 (DU-145; [2]) was 8.55 µM, the GI50 (RPMI-8226) was 8.6 µM and the Total growth inhibition (TGI) (RPMI-8226) was over 100 µM. For the same compound, the CC50 (RPMI-8226; [2]) was over 100 µM, the GI50 (OVCAR-8) was 1670 nM and the Total growth inhibition (TGI) (OVCAR-8) was 3.51 µM. For the same compound, the CC50 (OVCAR-8; [2]) was 7.37 µM, the Total growth inhibition (TGI) (A549/ATCC; Non-Small Cell Lung) was 13.5 µM and the GI50 (A549/ATCC; Non-Small-Cell Lung) was 3.09 µM. It also gave a CC50 (A549/ATCC; read-out: 50% lethal concentration (LC50), Non-Small Cell Lung) of over 100 µM.
